System: Dog intraocular pressure
Test: Dog intraocular pressure by applanation pneumatonometry
Format: in vivo
Settings: dogs, 25 μl to the ocular surface, contralateral eye vehicle, measured before and at 6 hours; FIGS. 3 and 4
Experimental: The compounds were prepared at the said concentrations in a vehicle comprising 0.1% polysorbate 80 and 10 mM TRIS base. Dogs were treated by administering 25 μl to the ocular surface, the contralateral eye received vehicle as a control. Intraocular pressure was measured by applanation pneumatonometry. Dog intraocular pressure was measured immediately before drug administration and at 6 hours thereafter.

Row | SMILES | effect on intraocular pressure
1 | O=C(O)CCC/C=C\C[C@H]1C(O)CC(O)[C@@H]1COC(=S)NCc1ccccc1 (stereo in doubt) [Example 9, 7-[2-Benzylthiocarbamoyloxymethyl-3,5-dihydroxycyclopentyl]hept-5-enoic acid] | lowered intraocular pressure
2 | O=C(O)CCC/C=C\C[C@@H]1[C@@H](COC(=S)NCc2cccc(Cl)c2)[C@H](O)C[C@@H]1O [Example 12, (Z)-7-[(1R,2S,3R,5S)-2-(3-Chlorobenzylthiocarbamoyloxymethyl)-3,5-dihydroxycyclopentyl]hept-5-enoic acid] | lowered intraocular pressure

System: PGF2α-sensitive receptor provisionally termed FPVASC
Test: relaxation of smooth muscle of isolated rabbit jugular vein
Format: cell-based
Settings: not given
Experimental: Activity at different prostanoid receptors was measured in vitro in isolated smooth muscle preparations. FP-activity was measured as contraction of the isolated feline iris sphincter. Activity was also measured as relaxation of smooth muscle of isolated rabbit jugular vein a preparation which appears to contain a unique PGF2α-sensitive receptor provisionally termed FPVASC. TP-vasoconstrictor activity was measured as contraction of rings of the isolated rat thoracic aorta.
Many examples also have pronounced activity at the FP receptor, provisionally termed FP associated with the vascular endothelium in the rabbit jugular vein preparation. Since such agents would be vasodilators they have potential in hypertension and any disease where tissue blood perfusion is compromised. Such indications include, but are not limited to, systemic hypertension, angina, stroke, retinal vascular diseases, claudication, Raynauds disease, diabetes, and pulmonary hypertension.

Row | SMILES | EC50 [nM]
3 | O=C(O)CCC/C=C\C[C@H]1C(O)CC(O)[C@@H]1COC(=O)NCc1ccccc1 (stereo in doubt) [Example 6, 7-[2-Benzylcarbamoyloxymethyl-3,5-dihydroxycyclopentyl]hept-5-enoic acid] | 14200
4 | O=C(O)CCC/C=C\C[C@H]1C(O)CC(O)[C@@H]1COC(=S)NCc1ccccc1 (stereo in doubt) [Example 9, 7-[2-Benzylthiocarbamoyloxymethyl-3,5-dihydroxycyclopentyl]hept-5-enoic acid] | 427
5 | O=C(O)CCC/C=C\C[C@H]1C(O)CC(O)[C@@H]1COC(=O)Nc1ccccc1 (stereo partly drawn) [Example 3, (Z)-7-((1R,2S,3R,5S)-3,5-Dihydroxy-2-phenzylcarbamoyloxymethylcyclopentyl)-hept-5-enoic acid] | 193000
6 | O=C(O)CCC/C=C\C[C@@H]1[C@@H](COC(=O)NCCc2cccs2)[C@H](O)C[C@@H]1O [Example 10, (Z)-7-[(1R,2S,3R,5S)-3,5-Dihydroxy-2-(2-thiophen-2-ylethylcarbamoyloxymethyl)-cyclopentyl]hept-5-enoic acid] | 32000
7 | CCCCNC(=S)OC[C@@H]1[C@@H](C/C=C\CCCC(=O)O)[C@@H](O)C[C@H]1O [Example 11, (Z)-7-((1R,2S,3R,5S)-2-Butylthiocarbamoyloxymethyl-3,5-dihydroxycyclopentyl)-hept-5-enoic acid] | 171
8 | O=C(O)CCC/C=C\C[C@@H]1[C@@H](COC(=S)NCc2cccc(Cl)c2)[C@H](O)C[C@@H]1O [Example 12, (Z)-7-[(1R,2S,3R,5S)-2-(3-Chlorobenzylthiocarbamoyloxymethyl)-3,5-dihydroxycyclopentyl]hept-5-enoic acid] | 3
9 | O=C(O)CCC/C=C\C[C@@H]1[C@@H](COC(=O)NCc2cccc(C(F)(F)F)c2)[C@H](O)C[C@@H]1O [Example 13, (Z)-7-[(1R,2S,3R,5S)-3,5-Dihydroxy-2-(3-trifluoromethylbenzylcarbamoyloxymethyl)cyclopentyl]hept-5-enoic acid] | 2840
10 | O=C(O)CCC/C=C\C[C@@H]1[C@@H](COC(=S)NCc2cccc(C(F)(F)F)c2)[C@H](O)C[C@@H]1O [Example 14, (Z)-7-[(1R,2S,3R,5S)-3,5-Dihydroxy-2-(3-trifluoromethylbenzylthiocarbamoyloxymethyl)cyclopentyl]hept-5-enoic acid] | 178
11 | O=C(CCC/C=C\C[C@@H]1[C@@H](COC(=S)NCc2cccc(Cl)c2)[C@H](O)C[C@@H]1O)NCCO [Example 18, (3-Chlorobenzyl)thiocarbamic acid O-{(1S,2R,3S,5R)-3,5-dihydroxy-2-[(Z)-6-(2-hydroxyethylcarbamoyl)hex-2-enyl]cyclopentylmethyl}ester] | 11000
12 | CCNC(=O)CCC/C=C\C[C@@H]1[C@@H](COC(=S)NCc2cccc(Cl)c2)[C@H](O)C[C@@H]1O [Example 19, (3-Chlorobenzyl)thiocarbamic acid O-[(1S,2R,3S,5R)-2-((Z)-6-ethylcarbamoylhex-2-enyl)-3,5-dihydroxycyclopentylmethyl]ester] | 2910
13 | NC(=O)CCC/C=C\C[C@@H]1[C@@H](COC(=S)NCc2cccc(Cl)c2)[C@H](O)C[C@@H]1O [Example 20, (3-Chlorobenzyl)thiocarbamic acid O-[(1S,2R,3S,5R)-2-((Z)-6-carbamoylhex-2-enyl)-3,5-dihydroxycyclopentylmethyl]ester] | 274

Source: patent US6380251B1, “Cyclopentane heptan(ene)oic acid, 2-thiocarbamoyloxy and 2-carbamoyloxy compounds as therapeutic agents” (Allergan Sales, Inc., priority 2000, dated 2002)
